Results from patent US20130085133A1, “ANTI-VIRAL TREATMENT AND ASSAY TO SCREENFOR ANTI-VIRAL AGENT” (Sourthern Research Institute Office of Commercialization …, priority 2010, published 2013).
Read-outs that look alike come from different tables or passages of the source.

Tests used:
HEp-2 cells = assay: cytotoxicity assay (percent viability of HEp-2 cells, Cell Titer-Glo); conditions: cell viability of HEp-2 cells (text: IC50), top concentration 25 ug/mL (Chembridge), 50 uM (Enamine, SRI Proprietary)
Experimental: (§1) Test compounds were evaluated by measuring their antiviral activity, cell toxicity, and selectivity. Test compounds were serially diluted in a plate to plate matrix or “stacked plate” matrix. All 320 compounds in a source plate were diluted together resulting in a 10 point dose response dilution series. It was visualized as a serial dilution series proceeding vertically through a stack of plates with the high dose plate on top and the low dose plate on the bottom.
(§2) Following the six day incubation period, the assay plates were equilibrated to room temperature for 30 min and an equal volume (30 μL) of Cell Titer-Glo reagent (Promega Inc.) was added to each well using a WellMate (Matrix, Hudson, N.H.) and plates were incubated for an additional 10 min at room temperature. At the end of the incubation, luminescence was measured using a Perkin Elmer Envision™ multi-label reader (PerkinElmer, Wellesley, Mass.) with an integration time of 0.1 s.
(§3) Data was analyzed using ActivityBase software (IDBS, Inc, Guilford, UK). thirty two control wells containing cells only and twenty four wells containing cells and virus were included on each assay plate and used to calculate Z′ value for each plate and to normalize the data on a per plate basis. […] Eight ribavirin positive control wells were included on each plate for quality control purposes, but were not used in Z′ calculations. […] In the toxicity assay, results are described as percent viability and the calculation is the same.
(§4) An EC50 (for CPE inhibition) and IC50 (for cell viability) were calculated for each substance using the 4 parameter Levenburg-Marquardt algorithm with parameter A locked at 0 and parameter B locked at 100. Standard deviation, normalized chi2 and hill slope were used to evaluate the curves. Values were not extrapolated beyond the tested range of concentrations.

[1] = tested on: respiratory syncytial virus (RSV) strain Long; conditions: EC50 for CPE inhibition, HEp-2 cells, six days, tested range 25 ug/mL to 0.048 ug/mL (Chembridge), 50 uM to 0.097 uM (Enamine, SRI Proprietary)
[2] = tested on: respiratory syncytial virus (RSV) strain Long; assay: microbe, parasite or virus in culture; conditions: human respiratory syncytial virus, HEp-2, 144 h
in vitro = conditions: human
Experimental: as §1, §2, §3, §4

RSV, Long strain = assay: virus titer Reduction (VTR) assay, progeny virus TCID50 in HEp-2 cells; format: cell-based, respiratory syncytial virus (RSV); conditions: for TCID-50 Reduction @ 3 ug/ml / log reduction at 3 µg/mL: 3 ug/ml compound; for TCID-50 Reduction @ 3 ug/ml / TCID-50 Reduction 6 @ ug/ml / TCID-50 Reduction 12 @ ug/ml / TCID-50 Reduction 25 @ ug/ml: log reduction in progeny virus titer; for TCID-50 Reduction 6 @ ug/ml / log reduction at 6 µg/mL: 6 ug/ml compound; for TCID-50 Reduction 12 @ ug/ml / log reduction at 12 µg/mL: 12 ug/ml compound; for TCID-50 Reduction 25 @ ug/ml / log reduction at 25 µg/mL: 25 ug/ml compound; for log reduction at 3 µg/mL: read-out: TCID-50 Reduction @ 3 ug/ml; for log reduction at 6 µg/mL: read-out: TCID-50 Reduction 6 @ ug/ml; for log reduction at 12 µg/mL: read-out: TCID-50 Reduction 12 @ ug/ml; for log reduction at 25 µg/mL: read-out: TCID-50 Reduction 25 @ ug/ml
Experimental: Four concentrations of each compound were evaluated (Table 3). Briefly, the four concentrations of test compounds, HEp-2 cells (8×10^3 per well) and RSV, Long strain (MOI=0.9) were plated in 96 well microtiter plates. The plates were incubated for 48 hours. Fifteen (15) μl of 10-fold serial dilution of progeny virus containing medium from respective samples (test compound treated or untreated) was transferred to infect fresh HEp-2 cells (2×10^3 cells per well) in a 384 well format. Plates were incubated for an additional 6 days and luminescence was measured using Cell Titer-Glo reagent (Promega Inc.) to determine cell viability. […] A well showing lesser than 50% cell viability was regarded as positive for virus infection. Four replicates for each virus dilution were analyzed and the number of virus positive wells (out of 4) was plotted versus the dilution. TCID50 was calculated to be the dilution that produced two positive wells out of four using ActivityBase software (IDBS, Inc, Guilford, UK).

[3] = cytotoxicity assay (percent viability of HEp-2 cells, Cell Titer-Glo); conditions: human, HEp-2 cells
Experimental: as §1, §2, §3, §4

[4] = human respiratory syncytial virus, 48 h

SMILES	CC50 (HEp-2 cells; unit not given)	EC50 ([1]; unit not given)	EC50 [2]	other results
Cc1cc(C=C(C#N)c2nc3ccccc3[nH]2)c(C)n1-c1ccccn1 [AB00342188]	>25.00	13.11		
COc1cc(N2CCCC2)c(OC)cc1C=C(C#N)c1nc2ccccc2[nH]1 [AB00321587]	>25.00	9.15		
COc1ccccc1/C=N/NC(=N)N[N+](=O)[O-] [SRI-101]			35.7 µM	CC50 (in vitro): > 50 µM
O=C(O)CCNc1nc(Cc2ccccc2)nc2sc3c(c12)CCCC3 [AB00308859]	>25.00	20.48		
CCOC(=O)c1ccc(-n2c(C)cc(C=C(C#N)c3nc4ccccc4[nH]3)c2C)cc1 [AB00709376]				CC50 (HEp-2 cells; unit inferred): > 50 µM; EC50 ([1]; unit inferred): 10.8 µM
Cc1ccc(-c2nc3ccccc3[nH]2)cc1NC(=O)c1ccc2c(c1)OCO2 [AB00348716]	>25.00	17.26		
Cc1ccc2[nH]c3c(c2c1)CN(C)CC3 [AB00275559]	>25.00	6.29		TCID-50 Reduction @ 3 ug/ml (RSV, Long strain): 1.00; TCID-50 Reduction 6 @ ug/ml (RSV, Long strain): 1.93; TCID-50 Reduction 12 @ ug/ml (RSV, Long strain): 2.21; TCID-50 Reduction 25 @ ug/ml (RSV, Long strain): 1.93
O=C(Nc1ccc(OC(F)(F)F)cc1)c1ccc2[nH]cnc2c1 [AB00368222]	>25.00	12.26		
C=CCN1C(=O)C2(C(C#N)=C(N)Oc3ccccc32)C(C(C)=O)=C1C (stereo not drawn) [AB00364858]			21.2 µg/mL	CC50 at 6 days (in vitro): > 25 µg/mL
COc1c2ccoc2nc2c(OC)cccc12 [AB00276394]			15.2 µg/mL	CC50 (in vitro): > 25 µg/mL
C=CCn1c(SCc2ccc(OC)c([N+](=O)[O-])c2)nnc1-c1cccc(Br)c1 [AB00294809]	>25.00	20.29		
CCCOc1ccc(-c2n[nH]c(SCc3ccc(C(=O)OC)o3)n2)cc1 [AB00356597]	>25.00	11.59		
O=S(=O)(c1cc(Cl)c(O)c(Cl)c1)c1cc(Cl)c(O)c(Cl)c1 [AB00275543]			16.2 µg/mL	CC50 at 6 days (in vitro): > 25 µg/mL
CCN(CC)C(=O)C1CCCc2c1[nH]c1ccc(Cl)cc21 (stereo not drawn) [AB00279132]	>25.00	1.92		TCID-50 Reduction @ 3 ug/ml (RSV, Long strain): 1.00; TCID-50 Reduction 6 @ ug/ml (RSV, Long strain): 3.63; TCID-50 Reduction 12 @ ug/ml (RSV, Long strain): 4.22; TCID-50 Reduction 25 @ ug/ml (RSV, Long strain): 3.83
Cc1ccc2[nH]c(-c3sc4nc(C)ccc4c3N)nc2c1 [AB00372475]	>25.00	21.04		
O=c1c(F)cn(Cc2ccc([N+](=O)[O-])cc2)c(=O)n1Cc1ccc([N+](=O)[O-])cc1 [AB00373945]			13.3 µM	CC50 (in vitro): > 50 µM
O=Cc1cn(CC(=O)N2CCc3ccccc3C2)c2ccc(Br)cc12 [AB00302396]			23.8 µg/mL	CC50 (in vitro): > 25 µg/mL
Brc1cc2nc[nH]c2c2ccccc12 [AB00358081]	>25.00	12.07		
S=C(c1c[nH]c2ccc(Br)cc12)N1CCOCC1 [AB00303357]	>25.00	21.92		
COc1ccc2[nH]c(C(C#N)=Cc3cc4c(cc3Cl)OCO4)nc2c1 [AB00364575]	>25.00	17.76		
CNC(=S)NNC(=O)COc1ccccc1C [AB00370002]			22 µg/mL	CC50 (in vitro): > 25 µg/mL

SMILES	CC50 (HEp-2 cells; unit not given)	EC50 ([1]; unit not given)	EC50 [2]	other results
Cc1[nH]c2ccccc2c1-c1csc(-c2ccncc2)n1 [AB00291074]	>25.00	20.59		
Cc1cccc(-n2c(Cc3cccc([N+](=O)[O-])c3)nc3ccccc3c2=O)c1 [AB00297463]			16.3 µg/mL	CC50 at 6 days (in vitro): > 25 µg/mL
CC1CCc2[nH]c3ccc(C(=O)OCC(=O)C(C)(C)C)cc3c2C1 (stereo not drawn) [AB00796257]				CC50 (HEp-2 cells; unit inferred): > 50 µM; EC50 ([1]; unit inferred): 24.8 µM
CC(=O)c1ccc(NC(=O)C(Cc2c[nH]c3ccccc23)NC(=O)c2cccs2)cc1 (stereo not drawn) [AB00776619]				CC50 (HEp-2 cells; unit inferred): > 50 µM; EC50 ([1]; unit inferred): 27.3 µM
COc1cc(OC)c(OC)cc1C=Nn1c(S)nnc1-c1ccc(C(C)(C)C)cc1 [AB00291789]	>25.00	10.96		
Nc1ccc2c(c1)Cc1ccccc1-2 [AB00374695]			46.8 µM	CC50 (in vitro): > 50 µM
O=C(Nc1ccc2[nH]c(-c3ccccc3)nc2c1)c1ccccc1 [AB00308659]	>25.00	8.66		TCID-50 Reduction @ 3 ug/ml (RSV, Long strain): 2.82; TCID-50 Reduction 6 @ ug/ml (RSV, Long strain): 3.64; TCID-50 Reduction 12 @ ug/ml (RSV, Long strain): 6.43; TCID-50 Reduction 25 @ ug/ml (RSV, Long strain): 6.40
Cc1sc(NC(=O)Cc2ccccc2)c(C(=O)O)c1C [AB00877398]				CC50 (HEp-2 cells; unit inferred): > 50 µM; EC50 ([1]; unit inferred): 40.1 µM
N#CCCN1CCN(C(=S)c2ccc(-c3cccc(Cl)c3)o2)CC1 [AB00294368]			15 µg/mL	CC50 (in vitro): > 25 µg/mL
N#CCCCSc1nnnn1-c1cccc(Cl)c1 [AB00287736]	>25.00	16.16		
CCC(Sc1nnc2c3ccccc3n(CCc3ccccc3)c2n1)C(=O)Nc1ccc(S(N)(=O)=O)cc1 (stereo not drawn) [AB00287440]	>25.00	17.84		
CC(N)=C(C#N)C(=O)CN1C(=O)NC(Cc2c[nH]c3ccccc23)C1=O (stereo not drawn) [AB00722846]				CC50 (HEp-2 cells; unit inferred): > 50 µM; EC50 ([1]; unit inferred): 1.74 µM
CC(=O)Nc1ccc(NC(=O)c2ccc3[nH]c4c(c3c2)CC(C)CC4)cc1 (stereo not drawn) [AB00804772]				CC50 (HEp-2 cells; unit inferred): > 50 µM; EC50 ([1]; unit inferred): 43.4 µM
CC(=O)Nc1ccc(Nc2ncnc3sc4c(c23)CCCC4)cc1 [AB00296051]	>25.00	16.70		
COc1ccc(-c2cn3cccnc3n2)cc1F [AB00292655]	>25.00	10.88		
O=S(=O)(O)c1ccc2c(c1)C1=NC/2=N\c2c3cc(S(=O)(=O)O)ccc3c3[n]2[Cu][n]2/c(c4ccc(S(=O)(=O)O)cc4/c2=N/C2=NC(=N\3)/c3cc(S(=O)(=O)O)ccc32)=N\1 [AB00514356]				CC50 (in vitro): > 50 µM
Cc1ccn2cc(-c3cccc(NS(=O)(=O)c4ccccc4)c3)nc2c1 [AB00356285]			4.04 µg/mL	log reduction at 3 µg/mL (RSV, Long strain; [4]): 1.14; log reduction at 6 µg/mL (RSV, Long strain; [4]): 1.38; log reduction at 12 µg/mL (RSV, Long strain; [4]): 2.42; log reduction at 25 µg/mL (RSV, Long strain; [4]): 3.78; CC50 at 6 days [3]: > 25 µg/mL
Fc1ccc(-c2cc(C(F)(F)F)n[nH]2)cc1 [AB00294826]	>25.00	16.73		
Cc1nn(-c2ccccc2)c(C)c1C(=O)C(=O)Nc1cccc(Cl)c1 [AB00785138]			7.52 µM	log reduction at 5 µg/mL (RSV, Long strain; human respiratory syncytial virus, 48 h, 5 ug/ml compound, read-out: TCID-50 Reduction @ 5 ug/ml): 1.96; log reduction at 12 µg/mL (RSV, Long strain; [4]): 4.24; log reduction at 25 µg/mL (RSV, Long strain; [4]): 4.56; log reduction at 50 µg/mL (RSV, Long strain; human respiratory syncytial virus, 48 h, 50 ug/ml compound, read-out: TCID-50 Reduction @ 50 ug/ml): 3.87; CC50 at 6 days [3]: > 50 µM
O=C(Cc1c(F)cccc1Cl)Nc1nc2c(s1)CCCC2 [AB00361531]			0.83 µg/mL	log reduction at 3 µg/mL (RSV, Long strain; [4]): 1.55; log reduction at 6 µg/mL (RSV, Long strain; [4]): 1.74; log reduction at 12 µg/mL (RSV, Long strain; [4]): 3.09; log reduction at 25 µg/mL (RSV, Long strain; [4]): 3.78; CC50 at 6 days [3]: > 25 µg/mL
Cc1ccccc1C(=O)N1CCCN(C(=O)c2ccccc2C)CC1 [AB00312102]			3.71 µg/mL	log reduction at 3 µg/mL (RSV, Long strain; [4]): 1.53; log reduction at 6 µg/mL (RSV, Long strain; [4]): 1.86; log reduction at 12 µg/mL (RSV, Long strain; [4]): 2.68; log reduction at 25 µg/mL (RSV, Long strain; [4]): 2.39; CC50 at 6 days [3]: > 25 µg/mL
